Data: patent US20260242419A1, “A CYCLIC PEPTIDE FOR TRAPPING INTERLEUKIN-1 BETA” (Merck Sharp & Dohme LLC, priority 2023, published 2026)
Starred links: 1 amine or outer side, 2 acyl side, 3 side chain; linkers in the order of their positions; H or OH if unused. Non-standard residues stand in square brackets, D forms with d. Residues, ends and D or L forms follow the SMILES beside them. dPro(4R-(4-pyridylmethyl)) = O=C(O)[C@H]1C[C@@H](Cc2ccncc2)CN1; Trp(βS-Me,4-F) = C[C@@H](c1c[nH]c2cccc(F)c12)[C@H](N)C(=O)O; 3Aminoazetidine3carboxyl = O=C(C1(N[*:1])CN([*:3])C1)[*:2]; Bip(4'-COOH) = N[C@@H](Cc1ccc(-c2ccc(C(=O)O)cc2)cc1)C(=O)O; X21 = O=C(O)c1ccc(-c2ccc(C[C@H](N[*:1])C(=O)[*:2])cn2)cc1; dPro(4R-Bzl(4-F)) = O=C(O)[C@H]1C[C@@H](Cc2ccc(F)cc2)CN1; X14 = O=C([C@H]1[C@@H](Cc2ccccc2)CCN1[*:1])[*:2]; Ala(morpholin-4-yl) = N[C@@H](CN1CCOCC1)C(=O)O; Ala(pyrimidin-5-yl) = N[C@@H](Cc1cncnc1)C(=O)O; Phe(4-COOH) = N[C@@H](Cc1ccc(C(=O)O)cc1)C(=O)O; Pro(cis-4-F) = O=C(O)[C@@H]1C[C@H](F)CN1; 4Pal = N[C@@H](Cc1ccncc1)C(=O)O; d(αMeS) = C[C@@](N)(CO)C(=O)O; αMeS = C[C@](N)(CO)C(=O)O; Dab = NCC[C@H](N)C(=O)O; Aib = CC(C)(N)C(=O)O

Each compound was assayed against T1, IL-1β (Homo sapiens, UniProt P01584) (assay: IL-6 assay in MRC5 cells: inhibition of IL-1β induced IL-6 secretion (AlphaLISA)). Conditions: not given.
T1 construct: purchased BioLegend 579404
Assay type: cell-based
Experimental: Procedure for IL-6 Assay in MRC5 Cells
The inhibition of IL-1β induced IL-6 secretion was evaluated in MRC5 cells. Recombinant human IL-1β (BioLegend 579404) at 2λ EC80 concentration was prepared in seeding medium. EMEM (ATCC 30-2003) with 0.025% BSA (Sigma A9576), 1×penicillin/streptomycin (Gibco 15070-063), 1×NEAA (Gibco 11140-050), 1×GlutaMax (Gibco 35050-061), and 1×sodium pyruvate (Gibco 11360-070), 20 μL of IL-1β was added to a 384-well collagen-coated plate (Corning 354664) and pre-incubated at ambient temperature for 1 hour with 200 nL of compound dispensed using an ECHO 555 liquid handler. Human lung fibroblast MRC5 cells (ATCC CCL-171) were added at a density of 3000 cells/20 μL per well. The cells were prepared by passaging three times in growth medium, EMEM (ATCC 30-2003) with 10% fetal bovine serum (Gibco 16140-071), 1×penicillin/streptomycin (Gibco 15070-063), 1×NEAA (Gibco 11140-050), 1×GlutaMax (Gibco 35050-061), and 1×sodium pyruvate (Gibco 11360-070) in collagen-coated T175 flasks (Greiner 661950) and harvested in seeding medium after 5 minutes of 0.25% trypsin-EDTA (Gibco 25200-056) digestion. The 384-well collagen-coated plate, containing a final volume of 40 μL, was incubated at 37° C., 5% CO2 overnight. 5 μL of the conditioned medium was transferred to a 384-well AlphaLISA plate (PerkinElmer 6005350) for detection of IL-6 using the human AlphaLISA IL-6 kit (PerkinElmer AL223F) as per the manufacturer's protocol. 20 μL of the acceptor bead/biotinylated antibody mix was added to the 384-well AlphaLISA plate and incubated for 1 hour at ambient temperature. The donor bead mix was protected from light and 25 μL was added to the plate and incubated for 30 minutes at ambient temperature. The AlphaLISA plate was read on an EnVision multimode plate reader (Perkin Elmer model 2104) using the AlphaScreen setting (laser exc at 680 nm and emis at […]). Dose response curves and IC50 values were analyzed using a 4-parameter logistic equation in Spotfire software (Tibco, Palo Alto, CA).

T1 sequence (P01584 117-269): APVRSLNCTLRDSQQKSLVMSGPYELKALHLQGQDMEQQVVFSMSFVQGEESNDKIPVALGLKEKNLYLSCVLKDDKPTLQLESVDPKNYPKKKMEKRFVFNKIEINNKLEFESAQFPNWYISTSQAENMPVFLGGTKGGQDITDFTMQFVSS

SMILES | IC50 [nM]
C[C@@H](c1c[nH]c2cccc(F)c12)[C@@H]1NC(=O)[C@@H]2C[C@H](F)CN2C(=O)CNC(=O)[C@H](Cc2ccc(C(=O)O)cc2)NC(=O)[C@H](Cc2ccncc2)NC(=O)[C@H](Cc2ccc(-c3ccc(C(=O)O)cc3)cc2)NC(=O)[C@H]2C[C@@H](Cc3ccc(F)cc3)CN2C(=O)CNC(=O)[C@H](CCN)NC(=O)[C@H](CCC(N)=O)NC(=O)[C@H](Cc2cncnc2)NC(=O)C(C)(C)NC(=O)[C@H](Cc2c[nH]c3ccccc23)NC(=O)[C@H](CCC(=O)O)NC(=O)[C@](C)(CO)NC1=O [Example 22] (cyclo([4Pal][Phe(4-COOH)]G[Pro(cis-4-F)][Trp(βS-Me,4-F)][αMeS]EW[Aib][Ala(pyrimidin-5-yl)]Q[Dab]G[dPro(4R-Bzl(4-F))][Bip(4'-COOH)])) | 0.027

Same assay, conditions: inhibition of IL-1β induced IL-6 secretion in MRC5 cells; read-out: MRC5 IC50

SMILES | IC50 [nM]
C[C@@H](c1c[nH]c2cccc(F)c12)[C@@H]1NC(=O)[C@@H]2C[C@H](F)CN2C(=O)CNC(=O)[C@H](Cc2ccc(C(=O)O)cc2)NC(=O)[C@H](Cc2ccncc2)NC(=O)[C@H](Cc2ccc(-c3ccc(C(=O)O)cc3)cc2)NC(=O)[C@H]2C[C@@H](Cc3ccncc3)CN2C(=O)CNC(=O)[C@H](CCN)NC(=O)[C@H](CCC(N)=O)NC(=O)[C@H](Cc2cncnc2)NC(=O)C(C)(C)NC(=O)[C@H](Cc2c[nH]c3ccccc23)NC(=O)[C@H](CCC(=O)O)NC(=O)C(C)(C)NC1=O [Example 14] (cyclo([Bip(4'-COOH)][4Pal][Phe(4-COOH)]G[Pro(cis-4-F)][Trp(βS-Me,4-F)][Aib]EW[Aib][Ala(pyrimidin-5-yl)]Q[Dab]G[dPro(4R-(4-pyridylmethyl))])) | 0.035
C[C@@H](c1c[nH]c2cccc(F)c12)[C@@H]1NC(=O)[C@@H]2C[C@H](F)CN2C(=O)CNC(=O)[C@H](Cc2ccc(C(=O)O)cc2)NC(=O)[C@H](Cc2ccncc2)NC(=O)[C@H](Cc2ccc(-c3ccc(C(=O)O)cc3)cc2)NC(=O)[C@H]2C[C@@H](Cc3ccncc3)CN2C(=O)CNC(=O)[C@H](CCN)NC(=O)[C@H](CCC(N)=O)NC(=O)[C@H](Cc2ccncc2)NC(=O)C(C)(C)NC(=O)[C@H](Cc2c[nH]c3ccccc23)NC(=O)[C@H](CCC(=O)O)NC(=O)C(C)(C)NC1=O [Example 15] (cyclo([Bip(4'-COOH)][4Pal][Phe(4-COOH)]G[Pro(cis-4-F)][Trp(βS-Me,4-F)][Aib]EW[Aib][4Pal]Q[Dab]G[dPro(4R-(4-pyridylmethyl))])) | 0.035
C[C@@H](c1c[nH]c2cccc(F)c12)[C@@H]1NC(=O)[C@@H]2C[C@H](F)CN2C(=O)CNC(=O)[C@H](Cc2ccc(C(=O)O)cc2)NC(=O)[C@H](Cc2ccncc2)NC(=O)[C@H](Cc2ccc(-c3ccc(C(=O)O)cc3)cc2)NC(=O)[C@H]2C[C@@H](Cc3ccc(F)cc3)CN2C(=O)CNC(=O)[C@H](CCN)NC(=O)[C@H](CCC(N)=O)NC(=O)[C@H](Cc2cncnc2)NC(=O)C2(CNC2)NC(=O)[C@H](Cc2c[nH]c3ccccc23)NC(=O)[C@H](CCC(=O)O)NC(=O)C(C)(C)NC1=O [Example 21] (cyclo([Bip(4'-COOH)][4Pal][Phe(4-COOH)]G[Pro(cis-4-F)][Trp(βS-Me,4-F)][Aib]EW[3Aminoazetidine3carboxyl][Ala(pyrimidin-5-yl)]Q[Dab]G[dPro(4R-Bzl(4-F))])) | 0.04
C[C@@H](c1c[nH]c2cccc(F)c12)[C@@H]1NC(=O)[C@@H]2C[C@H](F)CN2C(=O)CNC(=O)[C@H](Cc2ccc(C(=O)O)cc2)NC(=O)[C@H](Cc2ccncc2)NC(=O)[C@H](Cc2ccc(-c3ccc(C(=O)O)cc3)cc2)NC(=O)[C@H]2C[C@@H](Cc3ccc(F)cc3)CN2C(=O)CNC(=O)[C@H](CN2CCOCC2)NC(=O)[C@H](CCC(N)=O)NC(=O)[C@H](Cc2cncnc2)NC(=O)C(C)(C)NC(=O)[C@H](Cc2c[nH]c3ccccc23)NC(=O)[C@H](CCC(=O)O)NC(=O)C(C)(C)NC1=O [Example 24] (cyclo([Bip(4'-COOH)][4Pal][Phe(4-COOH)]G[Pro(cis-4-F)][Trp(βS-Me,4-F)][Aib]EW[Aib][Ala(pyrimidin-5-yl)]Q[Ala(morpholin-4-yl)]G[dPro(4R-Bzl(4-F))])) | 0.049
C[C@@H](c1c[nH]c2cccc(F)c12)[C@@H]1NC(=O)[C@@H]2C[C@H](F)CN2C(=O)CNC(=O)[C@H](Cc2ccc(C(=O)O)cc2)NC(=O)[C@H](Cc2ccncc2)NC(=O)[C@H](Cc2ccc(-c3ccc(C(=O)O)cc3)nc2)NC(=O)[C@H]2C[C@@H](Cc3ccc(F)cc3)CN2C(=O)CNC(=O)[C@H](CCN)NC(=O)[C@H](CCC(N)=O)NC(=O)[C@H](Cc2cncnc2)NC(=O)C(C)(C)NC(=O)[C@H](Cc2c[nH]c3ccccc23)NC(=O)[C@H](CCC(=O)O)NC(=O)C(C)(C)NC1=O [Example 26] (cyclo([X21][4Pal][Phe(4-COOH)]G[Pro(cis-4-F)][Trp(βS-Me,4-F)][Aib]EW[Aib][Ala(pyrimidin-5-yl)]Q[Dab]G[dPro(4R-Bzl(4-F))])) | 0.035
C[C@@H](c1c[nH]c2cccc(F)c12)[C@@H]1NC(=O)[C@@H]2C[C@H](F)CN2C(=O)CNC(=O)[C@H](Cc2ccc(C(=O)O)cc2)NC(=O)[C@H](Cc2ccncc2)NC(=O)[C@H](Cc2ccc(-c3ccc(C(=O)O)cc3)cc2)NC(=O)[C@H]2[C@@H](Cc3ccccc3)CCN2C(=O)CNC(=O)[C@H](CO)NC(=O)[C@H](CCC(N)=O)NC(=O)[C@H](Cc2cncnc2)NC(=O)C(C)(C)NC(=O)[C@H](Cc2c[nH]c3ccccc23)NC(=O)[C@H](CCC(=O)O)NC(=O)C(C)(C)NC1=O [Example 28] (cyclo([Bip(4'-COOH)][4Pal][Phe(4-COOH)]G[Pro(cis-4-F)][Trp(βS-Me,4-F)][Aib]EW[Aib][Ala(pyrimidin-5-yl)]QSG[X14])) | 0.023

Continued, values first:

IC50 [nM] | SMILES
0.029 | C[C@@H](c1c[nH]c2cccc(F)c12)[C@@H]1NC(=O)[C@@H]2C[C@H](F)CN2C(=O)CNC(=O)[C@H](Cc2ccc(C(=O)O)cc2)NC(=O)[C@H](Cc2ccncc2)NC(=O)[C@H](Cc2ccc(-c3ccc(C(=O)O)cc3)cc2)NC(=O)[C@H]2C[C@@H](Cc3ccc(F)cc3)CN2C(=O)CNC(=O)[C@H](CCN)NC(=O)[C@H](CCC(N)=O)NC(=O)[C@H](Cc2cncnc2)NC(=O)C(C)(C)NC(=O)[C@H](Cc2c[nH]c3ccccc23)NC(=O)[C@H](CC(=O)O)NC(=O)C(C)(C)NC1=O [Example 17] (cyclo([Bip(4'-COOH)][4Pal][Phe(4-COOH)]G[Pro(cis-4-F)][Trp(βS-Me,4-F)][Aib]DW[Aib][Ala(pyrimidin-5-yl)]Q[Dab]G[dPro(4R-Bzl(4-F))]))
0.027 | C[C@@H](c1c[nH]c2cccc(F)c12)[C@@H]1NC(=O)[C@@H]2C[C@H](F)CN2C(=O)CNC(=O)[C@H](Cc2ccc(C(=O)O)cc2)NC(=O)[C@H](Cc2ccncc2)NC(=O)[C@H](Cc2ccc(-c3ccc(C(=O)O)cc3)cc2)NC(=O)[C@H]2C[C@@H](Cc3ccc(F)cc3)CN2C(=O)CNC(=O)[C@H](CCN)NC(=O)[C@H](CCC(N)=O)NC(=O)[C@H](Cc2cncnc2)NC(=O)[C@](C)(CO)NC(=O)[C@H](Cc2c[nH]c3ccccc23)NC(=O)[C@H](CCC(=O)O)NC(=O)C(C)(C)NC1=O [Example 18] (cyclo([Bip(4'-COOH)][4Pal][Phe(4-COOH)]G[Pro(cis-4-F)][Trp(βS-Me,4-F)][Aib]EW[αMeS][Ala(pyrimidin-5-yl)]Q[Dab]G[dPro(4R-Bzl(4-F))]))
0.021 | C[C@@H](c1c[nH]c2cccc(F)c12)[C@@H]1NC(=O)[C@@H]2C[C@H](F)CN2C(=O)CNC(=O)[C@H](Cc2ccc(C(=O)O)cc2)NC(=O)[C@H](Cc2ccncc2)NC(=O)[C@H](Cc2ccc(-c3ccc(C(=O)O)cc3)cc2)NC(=O)[C@H]2C[C@@H](Cc3ccc(F)cc3)CN2C(=O)CNC(=O)[C@H](CCN)NC(=O)[C@H](CCC(N)=O)NC(=O)[C@H](Cc2cncnc2)NC(=O)C(C)(C)NC(=O)[C@H](Cc2c[nH]c3ccccc23)NC(=O)[C@H](CCC(=O)O)NC(=O)[C@@](C)(CO)NC1=O [Example 19] (cyclo([Bip(4'-COOH)][4Pal][Phe(4-COOH)]G[Pro(cis-4-F)][Trp(βS-Me,4-F)][d(αMeS)]EW[Aib][Ala(pyrimidin-5-yl)]Q[Dab]G[dPro(4R-Bzl(4-F))]))
0.018 | C[C@@H](c1c[nH]c2cccc(F)c12)[C@@H]1NC(=O)[C@@H]2C[C@H](F)CN2C(=O)CNC(=O)[C@H](Cc2ccc(C(=O)O)cc2)NC(=O)[C@H](Cc2ccncc2)NC(=O)[C@H](Cc2ccc(-c3ccc(C(=O)O)cc3)cc2)NC(=O)[C@H]2C[C@@H](Cc3ccc(F)cc3)CN2C(=O)CNC(=O)[C@H](CCN)NC(=O)[C@H](CCC(N)=O)NC(=O)[C@H](Cc2cncnc2)NC(=O)[C@@](C)(CO)NC(=O)[C@H](Cc2c[nH]c3ccccc23)NC(=O)[C@H](CCC(=O)O)NC(=O)C(C)(C)NC1=O [Example 23] (cyclo([Bip(4'-COOH)][4Pal][Phe(4-COOH)]G[Pro(cis-4-F)][Trp(βS-Me,4-F)][Aib]EW[d(αMeS)][Ala(pyrimidin-5-yl)]Q[Dab]G[dPro(4R-Bzl(4-F))]))
